Consider one compound from US20260041640A1 (INCYCLIX BIO, LLC, priority 2023, published 2026).

One may read the fraction unbound as free concentration divided by total concentration. Lower therefore signals extensive binding.

Read-outs that look alike come from different tables or passages of the source.

A short description of data set [1]: Toxicity and toxicokinetics studies, dog. The data set is classed as in vivo, beagle dogs.
Procedure: Nominal dose values and sampling times were used for calculations. Any concentration reported as BLQ (LLOQ<1.0 ng/mL) was set equal to zero. Toxicokinetic analyses included Cmax, Tmax, AUC0-24, t1/2, RA Cmax, and RA AUC0-24.
Following this, human dose exposure was simulated using a combined whole blood and plasma compartment PK model using allometry and whole blood parameter estimates for the absorption rate constants and bioavailability per animal species. Absolute dose administration was used for modeling. V1, CL, V2, and Q parameters were extrapolated to human using allometric scaling. […] Human body weight was set to 75 kg.
In data set [2] the test system is LU5202 [small cell lung cancer (SCLC)] patient-derived xenograft (PDX) model. The format is in vivo. How it is done:
8-week-old NOD/SCID female mice (n=59) were split into two cohorts. A total of 29 mice were enrolled in cohort 1 of the study. A total of 30 mice were enrolled in […] of the study. When the average tumor volume reached 150-250 mm^3, all animals were randomly allocated to the 6 different study groups using Study Log software (Table 24). Animals were monitored weekly for palpable tumors, or any changes in appearance or behavior. Once tumors were palpable, tumors were measured at least once weekly using calipers. Body weight was measured at least 2 times per week following randomization and initiation of treatment.

Data set [3] in a line: First-in-human clinical study: safety and tolerability. The data set is classed as in vivo. How it is done: All INX-315 tablets were taken at approximately the same time(s) each day.
Cohort 1 enrollment of 6 subjects dosed at 100 mg oral QD was completed in October of 2023.

A short description of data set [4]: Plasma protein binding, human. The data set is classed as in vitro ADME. An excerpt: Additionally, the whole blood-to-plasma ratio (KWB/P) in humans is 6.20, which also exceeds the other species tested (Table 7).

Regarding `NS(=O)(=O)c1ccc(Nc2ncc3cc4n(c3n2)C2(CCCCC2)C(=O)NN4)cc1` [INX-315], the “Absorption rate constant (KA)” value in data set [1] (beagle, dog, in vivo) stood at 0.18 h⁻¹. In addition, the “HED of the highest nonseverely toxic dose (HNSTD)” value in data set [1] (dogs) is reported as 16,216 mg/day. The “safety margin of 100 mg QD starting dose vs HED of HNSTD” value in data set [1] (dogs) stood at 160 fold. For the same compound, the tumor growth inhibition came out at 70% in data set [2] (cohort 1, INX-315 100 mg/kg added to chemotherapy (cisplatin + etoposide)); 62% in data set [2] (cohort 1, monotherapy 100 mg/kg BID PO); 66% in data set [2] (cohort 1, monotherapy 150 mg/kg BID PO); 94% in data set [2] (cohort 2, INX-315 100 mg/kg added to chemotherapy); 70% in data set [2] (cohort 2, monotherapy 100 mg/kg BID PO); 87% in data set [2] (cohort 2, monotherapy 150 mg/kg BID PO). Further, the “body weight / tolerability” value in data set [2] (cohort 1, chemotherapy and INX-315) was “lost weight and did not tolerate the treatment well”. Also, the safety issues result in data set [3] (200 mg QD) is “no new safety issues”. Further, the DLTs result in data set [3] (Cohort 1, 100 mg QD) is “No DLTs”. In data set [3] (Cohort 1, 100 mg QD), the “changes in complete blood counts or clinical chemistries” value is listed as “No significant changes”. Moreover, the tolerability result in data set [3] (Cohort 1, 100 mg QD) is listed as “well tolerated”. The compound also had a free fraction (fraction unbound) in data set [4] of 0.056.
